Measured values taken from article PMC7402526, “An in vitro quantitative systems pharmacology approach for deconvolving mechanisms of drug-induced, multilineage cytopenias” (PLoS Computational Biology, 2020).

What was measured:
[1] = test system: total dead cells (totalDeadCells); experiment: MLTA, total dead cells concentration-response; assay type: cell-based; conditions: Homo sapiens, 144 h, 6 days, normalized to vehicle control, read-out: total_dead normalized cell count
Outline: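 Freeze-thawed primary human bone marrow CD34+ cells in SFEM II with cytokine cocktail, drug added day 0, 6 days at 37°C, 5% CO2. Live/dead counts by 17-parameter flow cytometry with DAPI exclusion, bead-normalized, volume-corrected to cells/mL. Normalized per donor to mean of six vehicle wells; 2–7 donors pooled.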

B cells (B-lin) = experiment: MLTA, B-lin: concentration-response and QSP model fit; assay type: cell-based, human; conditions: Homo sapiens, B-cell, 144 h
Outline: (§1)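 Freeze-thawed primary human bone marrow CD34+ cells were cultured 6 days in SFEM II with a cytokine cocktail, drug added on day 0. Subsets were counted by 17-parameter flow cytometry with TruCount beads and normalized to vehicle wells. An Emax QSP model (Emax 0–2, L1 regularization) was fitted to these counts.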

monocytes (monocyte-lin) = experiment: MLTA, Mono: concentration-response and QSP model fit; assay type: cell-based, human; conditions: Homo sapiens, Monocyte, 144 h
Outline: as §1

[2] = test system: granulocyte-macrophage progenitor (GMPs); experiment: MLTA, GMPs: concentration-response and QSP model fit; assay type: cell-based, human; conditions: Homo sapiens, 144 h
Outline: as §1

[3] = test system: lymphocyte progenitors (LymP); experiment: MLTA, LymP: concentration-response and QSP model fit; assay type: cell-based, human; conditions: Homo sapiens, Lymphocyte, 144 h
Outline: as §1

granulocytes (Gran-lin) = experiment: MLTA, Gran: concentration-response and QSP model fit; assay type: cell-based, human; conditions: Homo sapiens, 144 h
Outline: as §1

MK cells (MK-lin) = experiment: MLTA, MK: concentration-response and QSP model fit; assay type: cell-based, human; conditions: Homo sapiens, 144 h
Outline: as §1

[4] = test system: hematopoietic stem cells (HSCs); experiment: Multi-lineage toxicity assay (MLTA), HSCs: concentration-response and QSP model fit; assay type: cell-based, human; conditions: Homo sapiens, Hematopoietic stem cell, 144 h
Outline: as §1

[5] = QSP model fit of 6-day MLTA data

Compound CS(=O)(=O)N1CCN(Cc2cc3nc(-c4cccc5[nH]ncc45)nc(N4CCOCC4)c3s2)CC1 [pictilisib] has an activity at 0.0002 µM ([1]; dose 0.2 nM) of 105%, an activity at 0.001 µM ([1]; dose 1 nM) of 110% and an activity at 0.005 µM ([1]; dose 5 nM) of 91.5%. For the same compound, the activity at 0.025 µM ([1]; dose 25 nM) was 93.1%, the activity at 0.1 µM ([1]; dose 100 nM) was 55.3% and the activity at 0.5 µM ([1]; dose 500 nM) was 40.1%. It also gave an activity at 2.5 µM ([1]; dose 2500 nM) of 34.3%, an EC50 (B cells (B-lin); [5]) of 91.3 nM and an activity at 0.0002 µM (B cells (B-lin); dose 0.2 nM, 6 days, normalized to vehicle control, read-out: B-lin normalized cell count) of 93.8%. For the same compound, the activity at 0.001 µM (B cells (B-lin); dose 1 nM, 6 days, normalized to vehicle control, read-out: B-lin normalized cell count) was 107%, the activity at 0.005 µM (B cells (B-lin); dose 5 nM, 6 days, normalized to vehicle control, read-out: B-lin normalized cell count) was 81.5% and the activity at 0.025 µM (B cells (B-lin); dose 25 nM, 6 days, normalized to vehicle control, read-out: B-lin normalized cell count) was 65.5%. The activity at 0.1 µM (B cells (B-lin); dose 100 nM, 6 days, normalized to vehicle control, read-out: B-lin normalized cell count) was 37.5%, the activity at 0.5 µM (B cells (B-lin); dose 500 nM, 6 days, normalized to vehicle control, read-out: B-lin normalized cell count) was 16.2% and the activity at 2.5 µM (B cells (B-lin); dose 2500 nM, 6 days, normalized to vehicle control, read-out: B-lin normalized cell count) was 6.19%. The Emax (B cells (B-lin); parameter from QSP model fitting, read-out: Emax_drug_B) was 51.4%, the EC50 (monocytes (monocyte-lin); [5]) was 1020 nM and the activity at 0.0002 µM (monocytes (monocyte-lin); dose 0.2 nM, 6 days, normalized to vehicle control, read-out: Mon normalized cell count) was 92.5%. It also gave an activity at 0.001 µM (monocytes (monocyte-lin); dose 1 nM, 6 days, normalized to vehicle control, read-out: Mon normalized cell count) of 90.6%, an activity at 0.005 µM (monocytes (monocyte-lin); dose 5 nM, 6 days, normalized to vehicle control, read-out: Mon normalized cell count) of 79.5% and an activity at 0.025 µM (monocytes (monocyte-lin); dose 25 nM, 6 days, normalized to vehicle control, read-out: Mon normalized cell count) of 77.6%. It also gave an activity at 0.1 µM (monocytes (monocyte-lin); dose 100 nM, 6 days, normalized to vehicle control, read-out: Mon normalized cell count) of 61.1%, an activity at 0.5 µM (monocytes (monocyte-lin); dose 500 nM, 6 days, normalized to vehicle control, read-out: Mon normalized cell count) of 30.9% and an activity at 2.5 µM (monocytes (monocyte-lin); dose 2500 nM, 6 days, normalized to vehicle control, read-out: Mon normalized cell count) of 12.5%. The Emax (monocytes (monocyte-lin); parameter from QSP model fitting, read-out: Emax_drug_Mono) was 3.93%, the EC50 [2, 5] was 1.41 nM and the activity at 0.0002 µM ([2]; dose 0.2 nM, 6 days, normalized to vehicle control, read-out: GMPs normalized cell count) was 95.6%. It also gave an activity at 0.001 µM ([2]; dose 1 nM, 6 days, normalized to vehicle control, read-out: GMPs normalized cell count) of 97.9%, an activity at 0.005 µM ([2]; dose 5 nM, 6 days, normalized to vehicle control, read-out: GMPs normalized cell count) of 92.7% and an activity at 0.025 µM ([2]; dose 25 nM, 6 days, normalized to vehicle control, read-out: GMPs normalized cell count) of 75.4%. It also gave an activity at 0.1 µM ([2]; dose 100 nM, 6 days, normalized to vehicle control, read-out: GMPs normalized cell count) of 62.5%, an activity at 0.5 µM ([2]; dose 500 nM, 6 days, normalized to vehicle control, read-out: GMPs normalized cell count) of 39.5% and an activity at 2.5 µM ([2]; dose 2500 nM, 6 days, normalized to vehicle control, read-out: GMPs normalized cell count) of 22.5%. It also gave an activity at 0.0002 µM ([3]; dose 0.2 nM, 6 days, normalized to vehicle control, read-out: LymP normalized cell count) of 93.3%, an activity at 0.001 µM ([3]; dose 1 nM, 6 days, normalized to vehicle control, read-out: LymP normalized cell count) of 105% and an activity at 0.005 µM ([3]; dose 5 nM, 6 days, normalized to vehicle control, read-out: LymP normalized cell count) of 86.9%. The activity at 0.025 µM ([3]; dose 25 nM, 6 days, normalized to vehicle control, read-out: LymP normalized cell count) was 77.7%, the activity at 0.1 µM ([3]; dose 100 nM, 6 days, normalized to vehicle control, read-out: LymP normalized cell count) was 49.6% and the activity at 0.5 µM ([3]; dose 500 nM, 6 days, normalized to vehicle control, read-out: LymP normalized cell count) was 46.4%. It also gave an activity at 2.5 µM ([3]; dose 2500 nM, 6 days, normalized to vehicle control, read-out: LymP normalized cell count) of 19.2%, an Emax ([3]; parameter from QSP model fitting, read-out: Emax_drug_LymP) of 0.032% and an EC50 (granulocytes (Gran-lin); [5]) of 0.167 nM. For the same compound, the activity at 0.0002 µM (granulocytes (Gran-lin); dose 0.2 nM, 6 days, normalized to vehicle control, read-out: Gran normalized cell count) was 99.2%, the activity at 0.001 µM (granulocytes (Gran-lin); dose 1 nM, 6 days, normalized to vehicle control, read-out: Gran normalized cell count) was 100% and the activity at 0.005 µM (granulocytes (Gran-lin); dose 5 nM, 6 days, normalized to vehicle control, read-out: Gran normalized cell count) was 90.3%. For the same compound, the activity at 0.025 µM (granulocytes (Gran-lin); dose 25 nM, 6 days, normalized to vehicle control, read-out: Gran normalized cell count) was 78.6%, the activity at 0.1 µM (granulocytes (Gran-lin); dose 100 nM, 6 days, normalized to vehicle control, read-out: Gran normalized cell count) was 51.4% and the activity at 0.5 µM (granulocytes (Gran-lin); dose 500 nM, 6 days, normalized to vehicle control, read-out: Gran normalized cell count) was 27.9%. The activity at 2.5 µM (granulocytes (Gran-lin); dose 2500 nM, 6 days, normalized to vehicle control, read-out: Gran normalized cell count) was 9.84%, the Emax (granulocytes (Gran-lin); parameter from QSP model fitting, read-out: Emax_drug_Gran) was 23.2% and the EC50 (MK cells (MK-lin); [5]) was 1070 nM. It also gave an activity at 0.0002 µM (MK cells (MK-lin); dose 0.2 nM, 6 days, normalized to vehicle control, read-out: MK normalized cell count) of 100%, an activity at 0.001 µM (MK cells (MK-lin); dose 1 nM, 6 days, normalized to vehicle control, read-out: MK normalized cell count) of 107% and an activity at 0.005 µM (MK cells (MK-lin); dose 5 nM, 6 days, normalized to vehicle control, read-out: MK normalized cell count) of 113%. For the same compound, the activity at 0.025 µM (MK cells (MK-lin); dose 25 nM, 6 days, normalized to vehicle control, read-out: MK normalized cell count) was 85.6%, the activity at 0.1 µM (MK cells (MK-lin); dose 100 nM, 6 days, normalized to vehicle control, read-out: MK normalized cell count) was 78.4% and the activity at 0.5 µM (MK cells (MK-lin); dose 500 nM, 6 days, normalized to vehicle control, read-out: MK normalized cell count) was 49.7%. The activity at 2.5 µM (MK cells (MK-lin); dose 2500 nM, 6 days, normalized to vehicle control, read-out: MK normalized cell count) was 16.8%, the Emax (MK cells (MK-lin); parameter from QSP model fitting, read-out: Emax_drug_MK) was 12.3% and the EC50 [4, 5] was 289 nM. It also gave an activity at 0.0002 µM ([4]; dose 0.2 nM, 6 days, normalized to vehicle control, read-out: HSCs normalized cell count) of 89.1%, an activity at 0.001 µM ([4]; dose 1 nM, 6 days, normalized to vehicle control, read-out: HSCs normalized cell count) of 102% and an activity at 0.005 µM ([4]; dose 5 nM, 6 days, normalized to vehicle control, read-out: HSCs normalized cell count) of 88.5%. The activity at 0.025 µM ([4]; dose 25 nM, 6 days, normalized to vehicle control, read-out: HSCs normalized cell count) was 99.2%, the activity at 0.1 µM ([4]; dose 100 nM, 6 days, normalized to vehicle control, read-out: HSCs normalized cell count) was 58.1% and the activity at 0.5 µM ([4]; dose 500 nM, 6 days, normalized to vehicle control, read-out: HSCs normalized cell count) was 28.1%. For the same compound, the activity at 2.5 µM ([4]; dose 2500 nM, 6 days, normalized to vehicle control, read-out: HSCs normalized cell count) was 8.09% and the Emax ([4]; parameter from QSP model fitting, read-out: Emax_drug_HSC) was 48.6%.
